Measurements from the supplement of paper PMC7108870.

Assays:
HEK293sieSTAT3(wt) [1] = assay: drug sensitivity score (DSS), cytotoxicity CellTox Green (DSS (dimensionless)); higher = more cytotoxic; extreme values may be limits of the assay; conditions: 72 h; STAT3 variant: wild type
Procedure, shortened: (§1)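 HEK293 cells carrying a STAT3-dependent luciferase reporter and overexpressing wild-type or mutant STAT3 (20 μl at 100,000 cells/ml) were added to compounds acoustically pre-plated at 5 concentrations in 10-fold dilutions in 384-well plates. After 72 hours at 37°C and 5% CO2, CellTox Green fluorescence (485/520 nm) and then CellTiter-Glo luminescence were read on a PHERAstar FS. Values were normalised to negative and positive control wells, and a drug sensitivity score based on dose-response curve area was computed in Breeze. Each value comes from one representative of two experiments.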

HEK293sieSTAT3(Y640F) [2] = assay: as above; conditions: 72 h; STAT3 variant: Y640F (constitutively active)
Procedure, shortened: as §1

HEK293sieSTAT3(wt) [3] = assay: drug sensitivity score (DSS), viability CellTiter-Glo (DSS (dimensionless)); higher = more growth inhibition; extreme values may be limits of the assay; conditions: 72 h; STAT3 variant: wild type
Procedure, shortened: as §1

HEK293sieSTAT3(Y640F) [4] = assay: as above; conditions: 72 h; STAT3 variant: Y640F (constitutively active)
Procedure, shortened: as §1

Row | Compound | drug sensitivity score (HEK293sieSTAT3(wt) [1]) | drug sensitivity score (HEK293sieSTAT3(Y640F) [2]) | drug sensitivity score (HEK293sieSTAT3(wt) [3]) | drug sensitivity score (HEK293sieSTAT3(Y640F) [4])
1 | Oc1ccc2c(c1)CC[C@H](c1ccccc1)[C@@H]2c1ccc(OCCN2CCCC2)cc1 [Lasofoxifene] (top concentration tested 1000 nM) | 0 | 0 | 3.21 | 2.47
2 | Nc1cccc2c1CN(C1CCC(=O)NC1=O)C2=O (centres undefined) [Lenalidomide] (top concentration tested 100000 nM) | 0 | 0 | 2.72 | 2.66
3 | COc1cc2nccc(Oc3ccc(NC(=O)NC4CC4)c(Cl)c3)c2cc1C(N)=O [Lenvatinib] (top concentration tested 2500 nM) | 0 | 0 | 2.2 | 2.04
4 | C[C@]12O[C@H](C[C@]1(O)CO)n1c3ccccc3c3c4c(c5c6ccccc6n2c5c31)CNC4=O [Lestaurtinib] (top concentration tested 1000 nM) | 4.55 | 7.22 | 8.27 | 9.27
5 | N#Cc1ccc(C(c2ccc(C#N)cc2)n2cncn2)cc1 [Letrozole] (top concentration tested 10000 nM) | 0.02 | 0 | 0.66 | 4.14
6 | c1ccc([C@H]2CN3CCSC3=N2)cc1 [Levamisole] (top concentration tested 10000 nM) | 0 | 0 | 0 | 0
7 | Cc1ccc(F)c(NC(=O)Nc2ccc(-c3cccc4[nH]nc(N)c34)cc2)c1 [Linifanib] (top concentration tested 1000 nM) | 0 | 0 | 0 | 0
8 | C[C@]1(O)C[C@@H](c2nc(-c3ccc4ccc(-c5ccccc5)nc4c3)c3c(N)nccn32)C1 [Linsitinib] (top concentration tested 10000 nM) | 0 | 0 | 2.31 | 5.71
9 | Nc1nc(OCc2cc(Br)cs2)c2[nH]cnc2n1 [Lomeguatrib] (top concentration tested 10000 nM) | 0.01 | 0 | 0.39 | 2.48
10 | O=NN(CCCl)C(=O)NC1CCCCC1 [Lomustine] (top concentration tested 10000 nM) | 0 | 0 | 0 | 0
11 | NC(=O)N1CCC(CC(=O)N2CCC([C@H]3c4ncc(Br)cc4CCc4cc(Cl)cc(Br)c43)CC2)CC1 [Lonafarnib] (top concentration tested 10000 nM) | 1.31 | 0.03 | 8.7 | 6.11
12 | Cc1c(F)cc(C(=O)NC2CC2)cc1-c1ccc(C(=O)NCC(C)(C)C)cn1 [Losmapimod] (top concentration tested 10000 nM) | 0 | 0 | 0 | 0.91
13 | CC[C@H](C)C(=O)O[C@H]1C[C@@H](C)C=C2C=C[C@H](C)[C@H](CC[C@@H]3C[C@@H](O)CC(=O)O3)[C@H]21 [Lovastatin] (top concentration tested 10000 nM) | 0 | 0 | 0.12 | 0
14 | CNC(=O)c1cccc2cc(Oc3ccnc4cc(OCC5(N)CC5)c(OC)cc34)ccc12 [Lucitanib] (top concentration tested 10000 nM) | 7.65 | 0 | 5.26 | 1.79
15 | CCNC(=O)c1noc(-c2cc(C(C)C)c(O)cc2O)c1-c1ccc(CN2CCOCC2)cc1 [Luminespib] (top concentration tested 1000 nM) | 15.9 | 7.6 | 27.8 | 23.7
16 | C=CCn1c(=O)c2cnc(Nc3ccc(N4CCN(C)CC4)cc3)nc2n1-c1cccc(C(C)(C)O)n1 [MK1775] (top concentration tested 10000 nM) | 16.5 | 10.6 | 19.4 | 20.4
17 | O=C(O)CC[C@H]1CC[C@@](c2cc(F)ccc2F)(S(=O)(=O)c2ccc(Cl)cc2)CC1 [MK-0752] (top concentration tested 1000 nM) | 0 | 0 | 0 | 1.59
18 | NC1(c2ccc(-c3nc4ccn5c(=O)[nH]nc5c4cc3-c3ccccc3)cc2)CCC1 [MK-2206] (top concentration tested 1000 nM) | 0 | 0 | 8.2 | 3.71

Row | Compound | drug sensitivity score (HEK293sieSTAT3(wt) [1]) | drug sensitivity score (HEK293sieSTAT3(Y640F) [2]) | drug sensitivity score (HEK293sieSTAT3(wt) [3]) | drug sensitivity score (HEK293sieSTAT3(Y640F) [4])
19 | CN(C[C@@H]1COCCO1)S(=O)(=O)Nc1ccc2ccc3ncc(-c4cnn(C)c4)cc3c(=O)c2c1 [MK-2461] (top concentration tested 10000 nM) | 0 | 0 | 3.5 | 3.63
20 | O=C(c1cccc(Cl)c1F)N1CCN(Cc2cccc(Nc3nccs3)n2)CC1 [MK-8745] (top concentration tested 2500 nM) | 1.16 | 0 | 3.99 | 0.11
21 | Cn1cc(-c2cnn3c(N)c(Br)c([C@@H]4CCCNC4)nc23)cn1 [MK-8776] (top concentration tested 2500 nM) | 3.43 | 1.03 | 6.83 | 5.89
22 | Cc1cnc(-c2ccccc2C(C)C)nc1NCc1ccc(-n2ccnn2)cc1 [ML323] (top concentration tested 10000 nM) | 0 | 0 | 1.14 | 2.43
23 | CC(C)n1nc(-c2ccc3oc(N)nc3c2)c2c(N)ncnc21 [MLN-0128] (top concentration tested 1000 nM) | 1.73 | 0 | 18.7 | 15
24 | O=C(O)c1ccc(Nc2ncc3c(n2)-c2ccc(Cl)cc2C(c2c(F)cccc2F)=NC3)cc1 [MLN-8054] (top concentration tested 10000 nM) | 2.73 | 0 | 11 | 6.2
25 | O=C(Nc1cccc(NC(=O)c2cccc(O)c2O)c1)c1cccc(O)c1O [MST-312] (top concentration tested 10000 nM) | 6.46 | 1.09 | 13.2 | 6.74
26 | CNC(=O)[C@@H](NC(=O)[C@H](CC(C)C)[C@H](O)C(=O)NO)C(C)(C)C [Marimastat] (top concentration tested 10000 nM) | 0 | 0 | 1.16 | 1.16
27 | Cc1ccc(NC(=O)c2ccc(CN3CCN(C)CC3)cc2)cc1Nc1nc(-c2cccnc2)cs1 [Masitinib] (top concentration tested 10000 nM) | 5.99 | 0.7 | 7.57 | 4.59
28 | CC(=O)O[C@]1(C(C)=O)CC[C@H]2[C@@H]3C=C(C)C4=CC(=O)CC[C@]4(C)[C@H]3CC[C@@]21C [Megestrol acetate] (top concentration tested 10000 nM) | 0 | 0 | 0.97 | 3.65
29 | N[C@@H](Cc1ccc(N(CCCl)CCCl)cc1)C(=O)O [Melphalan] (top concentration tested 12500 nM) | 0 | 0 | 0 | 1.69
30 | CCN(CC)CCCC(C)Nc1c2ccc(Cl)cc2nc2ccc(OC)cc12 (centres undefined) [Mepacrine] (top concentration tested 50000 nM) | 19.7 | 18.1 | 21.4 | 21.1
31 | S=c1[nH]cnc2nc[nH]c12 [Mercaptopurine] (top concentration tested 10000 nM) | 0 | 0 | 7.64 | 7.54
32 | Cc1ccc(C(=O)Nc2ccc(Oc3cc4cnn(C)c4cc3-c3cn[nH]c3)c(F)c2)c(=O)n1-c1ccc(F)cc1 [Merestinib] (top concentration tested 1000 nM) | 0 | 0 | 1.38 | 4.06
33 | CN(C)C(=N)NC(=N)N [Metformin] (top concentration tested 100000 nM) | 2.32 | 0 | 2.41 | 0.22
34 | CN(Cc1cnc2nc(N)nc(N)c2n1)c1ccc(C(=O)N[C@@H](CCC(=O)O)C(=O)O)cc1 [Methotrexate] (top concentration tested 5000 nM) | 1.17 | 0 | 17 | 26.1
35 | C[C@H]1C[C@@H]2[C@H]([C@@H](O)C[C@@]3(C)[C@H]2CC[C@]3(O)C(=O)CO)[C@@]2(C)C=CC(=O)C=C12 [Methylprednisolone] (top concentration tested 10000 nM) | 0 | 0 | 1.52 | 2.04
36 | CO[C@@H]1[C@H](N(C)C(=O)c2ccccc2)C[C@H]2O[C@]1(C)n1c3ccccc3c3c4c(c5c6ccccc6n2c5c31)C(=O)NC4 [Midostaurin] (top concentration tested 10000 nM) | 2.79 | 0 | 4.05 | 5.01
